Assay results from patent US11136370B2, “Compositions and methods for thrombin generation assay” (The Scripps Research Institute, priority 2016, dated 2021).
Entries after “also recorded” stand apart in the source; their conditions may differ.

Key:
[1] = full anticoagulant dosage; cited from earlier work
[2] = system: immobilized rTF; test: Blood perfusion over immobilized rTF, volume of platelet aggregates and fibrin; assay type: cell-based, human
Experimental: Glass coverslips treated with 0.2 mg/ml poly-L-lysine for 6 h at 37° C. were coated with rTF for 18-20 hours at 37° C. or 2.5 mg/ml acid-insoluble type I collagen for 2 hours at 22-25° C. Then they were rinsed with pH 7.4 buffered-saline, assembled in a rectangular flow chamber with a 125 μm-high silicon gasket and positioned on a confocal microscope stage for analysis. Venous blood for testing was collected into final 10.9 mM trisodium citrate using a plastic syringe for normal volunteers or Vacutainer tubes (Becton Dickinson, Buccinasco, Milan) for patients and controls. Before perfusion at a flow rate yielding an initial wall shear rate of 300 s^−1 maintained with a syringe pump (Harvard Apparatus, Holliston, Mass.), CaCl2 was added to obtain 1.29 mM Ca^2+. In the blood of patients—potentially hypercoagulable—and related controls, lepirudin (50 nM) was also added to neutralize thrombin possibly generated before testing. […] For experiments with WT and mutant FVIIa, cells from group O citrated blood, containing 50 μg/ml CTI and 10 U/ml (ADPase activity) apyrase, were washed free of plasma by sequential centrifugation steps at 1500 g for 7 min. After the first, plasma was replaced with an equal volume of calcium-free Tyrode buffer, pH 6.5, with 5 U/ml apyrase; then with buffer and 1.25 U/ml apyrase; and finally with human FVII deficient plasma (George King Bio-Medical, Overland Park, Kans.) up to the original blood volume. Cell count results in reconstituted and native blood were within 90%. Experiments in Milan (Italy) were performed with a Leica TCS SP5 microscope and HCX PL APO 63x/1.40 NA oil immersion objective (Leica Microsystems GmbH, Wetzlar, Germany); in La Jolla (California) with a Zeiss Axiovert 135M/LSM 410 and Plan-Apochromat 40x/1.40 NA oil immersion objective (Carl Zeiss AG, Oberkochen, Germany).
Platelets adhering and aggregating onto the surface were visualized by adding quinacrine-HCl (mepacrine; 10 μg/ml; Sigma-Aldrich) to blood. Deposited fibrin was visualized with Alexa Fluor 546-labeled (Invitrogen) mouse monoclonal IgG (50 μg/ml) specific for the B chain of mouse and human fibrin (HB-8545; ATCC). Blood was perfused for 3-5 min at 37° C. with a syringe pump (Harvard Apparatus Inc.) at a flow rate yielding an initial (in the unobstructed flow path) wall shear rate of 300 s^−1. This was followed by buffer (DMEM) for 2 minutes to facilitate fibrin quantification by confocal z section analysis using a Zeiss Axiovert 135M/LSM 410 microscope (Carl Zeiss) and Plan-Apochromat×63/1.40 NA oil immersion objective. Image analysis was performed with NIH ImageJ64. Deposited fibrin volume was measured from confocal sections collected at 4 preset positions in the flow chamber. Total volume of deposited platelets and fibrin was calculated from the sum of the respective area coverage per section multiplied by the z interval (2 μm). All studies involving human subjects were conducted following institutionally approved protocols.
TF-coated glass coverslips were perfused with venous blood at a wall shear rate of 300 s^−1. A Zeiss Axiovert 135M/LSM 410 and Plan-Apochromat 40x/1.40 NA oil immersion objective (Carl Zeiss AG, Oberkochen, Germany) was used to visualize platelets/leukocytes and fibrin stained with mepacrine and a specific anti-body, respectively. Image analysis to calculate volumes was performed as described herein.
Glass coverslips treated with 0.2 mg/ml poly-L-lysine for 6 h at 37° C. were coated with rTF for 18-20 hours at 37° C., rinsed with buffered-saline and assembled in a rectangular flow chamber with a 125 μm-high silicon gasket. Venous blood was collected into final 10.9 mM trisodium citrate using a plastic syringe. CaCl2 was added to obtain 1.29 mM Ca^2+ before perfusion at a wall shear rate of 300 s-1 maintained with a syringe pump (Harvard Apparatus, Holliston, Mass.). […]

[3] = target: T1, nascent TF-FVIIa-FXa (Homo sapiens, UniProt P00742); test: FVIII activation (FVIIIa generation, WB) by nascent FXa generated by TF-FVIIa; assay type: biochemical; conditions: for effect on FVIII activation by nascent FXa generated by TF-FVIIa: therapeutic concentrations, 50-450 nM
T1 construct: purchased Haematologic Technologies (FX); Siemens Healthcare Diagnostics (rTF); FVIIa made in house
T1 sequence (P00742 41-179 limits assumed): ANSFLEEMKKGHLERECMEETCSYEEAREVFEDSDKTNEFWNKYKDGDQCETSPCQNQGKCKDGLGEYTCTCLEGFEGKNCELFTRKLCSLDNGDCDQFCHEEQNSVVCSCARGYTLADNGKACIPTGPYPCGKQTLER
T1 sequence (P00742 235-488 limits assumed): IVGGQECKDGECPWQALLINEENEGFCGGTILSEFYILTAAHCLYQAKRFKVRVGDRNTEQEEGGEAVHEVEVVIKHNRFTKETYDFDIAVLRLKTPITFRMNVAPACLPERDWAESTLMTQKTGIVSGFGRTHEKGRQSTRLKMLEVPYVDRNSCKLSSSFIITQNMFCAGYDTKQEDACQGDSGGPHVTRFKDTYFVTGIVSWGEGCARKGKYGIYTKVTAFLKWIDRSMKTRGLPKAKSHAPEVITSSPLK
Experimental: (§1) Thrombin was quantified with a fluorogenic substrate for calculation of % inhibition. […] Reactions were initiated by 100 pM FXa with 50 pM rTF as the phospholipid surface (top); or the preformed complex of 50 pM TF, 100 pM iFVIIa, 100 pM FXa, 5 nM NAPc2 (middle); or 50 pM TF/200 pM FVIIa/135 nM FX (bottom) in mixtures of 0.7 nM FVIII, 3 nM FV, 200 nM lepirudin, 10 nM TFPI, and 2.5 mM CaCl2 incubated for 120 s at 37° C. […] (n=3-4). […] Endogenous thrombin potential (ETP, right) was calculated from the area under the TG curve (n=2). Results in (E) and (F) are shown as 25th-75th percentile bars with min to max whiskers or min to max bars (when n≤3) with a line at the median. Differences were evaluated with the ANOVA/Tukey test (performed after log 10 transformation of the data shown in E); *P<0.05, ***P<0.001.
(A) WB analysis (representing 3) of the effect of anti-FVIIa MoAbs 3G12 and 12C7 (20 μg/ml) on TF-dependent FVIIIa generation after 120 s in reactions including 50 pM TF, 200 pM FVIIa, 135 nM FX, 3.5 nM FVIII, 3 nM FV and 200 nM lepirudin; quantification as in FIG. 4E. […] Reactions contained 50 pM TF, 200 pM FVIIa, 0.7 nM FVIII, 3 nM FV, 135 nM FX, 10 nM TFPI, 200 nM lepirudin and 2.5 mM CaCl2; anti-FVIIa MoAbs or control mouse IgG were at 20 μg/ml; the function-blocking anti-FVIII MoAb 8D4 was at 8 μg/ml. (C) Effect of anti-FVIIa MoAbs 3G12 and 12C7 (20 μg/ml), without or with anti-FVIII MoAb 8D4 (8 μg/ml) or anti-FXI MoAb O1A6 (20 μg/ml), on TG in normal PRP. […] Results in (B) and (D) are shown as 25th-75th percentile bars with min to max whiskers or min to max bars (when n≤3) with a line at the median. Differences were evaluated by a two-tailed t-test with Welch correction (A) or the ANOVA/Tukey test (B and D). *P<0.05, **P<0.01, ***P<0.001.
Coagulation reaction products were separated by reducing sodium dodecyl sulfate-polyacrylamide gel electrophoresis (SDS-PAGE), except for the analysis of FVIII activation in the presence of anti-FVIIa MoAbs that was performed under non-reducing conditions. After transfer to a polyvinylidene fluoride membrane, blots were probed with MoAb C5, biotinylated or not (0.5 μg/ml), for FVIII activation; MoAb AHV-5146 (1 μg/ml) for FV. Quantitative infrared detection of FVIIIa and FVa was obtained with IRDye 800CW-conjugated anti-mouse IgG or streptavidin followed by analysis with the Odyssey infrared imager (Li-COR, Lincoln, Nebr.). Concentrations were calculated by calibration with known quantities of FVIIIa and FVa.
The synthetic reaction mixtures comprised 0.7 nM FVIII, 3 nM FV, 135 nM FX, 104 prothrombin in 50 mM Tris-buffered saline, pH 7.4, with 0.1% BSA. […] Reactions to prevent thrombin effects were carried out in the presence of 200 nM lepirudin or 4 μM DAPA. Reactions were initiated by adding 0.6 to 400 pM rTF, 200 to 500 pM FVIIa or/and 10 nM FIXa, followed by 2.5 mM CaCl2 and incubation at 37° C. for the indicated times. 10 mM EDTA was then added to quench the reaction. Generation of FXa, FIIa and thrombin were evaluated by measuring amidolytic activity toward the chromogenic substrate S-2765 (180 μM; N-α-benzyloxycarbonyl-D-arginyl-L-glycyl-L-arginine-p-nitroaniline; DiaPharma, West Chester, Ohio) and the fluorogenic substrate Z-Gly-Gly-Arg-AMC (360 μM) respectively.

[4] = target: T2, FXa WT (Homo sapiens, UniProt P00742); test: FVIIIa generation by FXa WT in stable complex with TF-iFVIIa-NAPc2; assay type: biochemical; conditions: 1 nM rivaroxaban
T2 construct: TF-associated FVIIa has converted FX into FXa active protease
T2 sequence (P00742 41-179 limits assumed): as the sequence (P00742 41-179 limits assumed) above
T2 sequence (P00742 235-488 limits assumed): as the sequence (P00742 235-488 limits assumed) above

[5] = target: FXa generated by Russel's viper venom (RVV) FX activator (Homo sapiens, UniProt P00742); test: FVIII activation by FXa generated by Russel's viper venom FX activator; assay type: biochemical
Sequence of FXa generated by Russel's viper venom (RVV) FX activator (P00742 41-179 limits assumed): as the sequence (P00742 41-179 limits assumed) above
Sequence of FXa generated by Russel's viper venom (RVV) FX activator (P00742 235-488 limits assumed): as the sequence (P00742 235-488 limits assumed) above
Experimental: Thrombin was quantified with a fluorogenic substrate for calculation of % inhibition. […] Reactions were initiated by 100 pM FXa with 50 pM rTF as the phospholipid surface (top); or the preformed complex of 50 pM TF, 100 pM iFVIIa, 100 pM FXa, 5 nM NAPc2 (middle); or 50 pM TF/200 pM FVIIa/135 nM FX (bottom) in mixtures of 0.7 nM FVIII, 3 nM FV, 200 nM lepirudin, 10 nM TFPI, and 2.5 mM CaCl2 incubated for 120 s at 37° C. […] Endogenous thrombin potential (ETP, right) was calculated from the area under the TG curve (n=2).
In some experiments, prothrombin was omitted from reactions and 200 nM lepirudin was added to inactivate potentially contaminating thrombin. […] A stable complex with FXa as the only active protease was prepared with 50 pM rTF, 100 pM FVIIa-S195A (iFVIIa), 100 pM FXa and 5 nM NAPc2 incubated for 120 s at 37° C. FVIII activation by this complex was examined in reactions including FVIII, FV and lepirudin incubated for 120 s.

[6] = system: thrombin generation (TG); test: TG in reactions with purified components (FVIIa, FIXa, rTF, FX, FV, prothrombin, TFPIα); assay type: biochemical, human; conditions: therapeutic doses
Experimental: as §1
The synthetic reaction mixtures comprised 0.7 nM FVIII, 3 nM FV, 135 nM FX, 104 prothrombin in 50 mM Tris-buffered saline, pH 7.4, with 0.1% BSA. […] Reactions to prevent thrombin effects were carried out in the presence of 200 nM lepirudin or 4 μM DAPA. […] Generation of FXa, FIIa and thrombin were evaluated by measuring amidolytic activity toward the chromogenic substrate S-2765 (180 μM; N-α-benzyloxycarbonyl-D-arginyl-L-glycyl-L-arginine-p-nitroaniline; DiaPharma, West Chester, Ohio) and the fluorogenic substrate Z-Gly-Gly-Arg-AMC (360 μM) respectively.

[7] = target: T3, ternary TF-FVIIa-FXa complex (Homo sapiens, UniProt P00742); test: FV activation (FVa generation, WB) by TF-FVIIa with FX; assay type: biochemical; conditions: clinically relevant concentrations
T3 construct: purchased Haematologic Technologies (FX); Siemens Healthcare Diagnostics (rTF); FVIIa made in house
T3 sequence (P00742 41-179 limits assumed): as the sequence (P00742 41-179 limits assumed) above
T3 sequence (P00742 235-488 limits assumed): as the sequence (P00742 235-488 limits assumed) above
Experimental: (A) Phospholipid-free assay of FX (1 μM) to FXa conversion by the complex of 2 μM soluble rTF with 10 nM FVIIa WT, T99Y or E154A. (B) FXa generation by 50 pM phospholipid-reconstituted rTF with 200 pM FVIIa WT, T99Y or E154A added to 135 nM FX, 0.7 nM FVIII, 3 nM FV and 200 nM lepirudin (2 min, n=2-3; 4 min, n=4-5; 6 min, n=6-9). (C) WB (representing 2) of FVIII activation in reactions of 50 pM TF, 200 pM FVIIa WT or mutants, 0.7 nM FVIII, 3 nM FV and 200 nM lepirudin without/with 135 nM FX, incubated for 120 s at 37° C. […] (E) FXa generation measured in reactions as in (D) without TFPIα and in the presence of 10 nM FIXa (left, incubation 180 s; n=5-6 except=2 for E154A) or 90 nM FIX (right, incubation for 360 s; n=5-6). […] Differences were evaluated by the ANOVA/Tukey test; results at 4 and 6 min in (B) and in reactions with FIX in (E, right) were analyzed after transformation as y=log 10 y (**P<0.01, ***P<0.001).
Time-course (mean±SEM) of 1 μM FX activation by 2 μM phospholipid-free soluble recombinant TF with 10 nM FVIIa WT (n=4-7), T99Y (n=2-3) or E154A mutants (n=3-4); incubation at 37° C. […] FVIIIa activity (25th-75th percentile bars, min to max whiskers, line at the median) generated as in (B), but without TFPIα, measured as FXa produced by 10 nM FIXa (n=9 for FVIIa WT and T99Y; n=5 for E154A). **P<0.01, ***P<0.001) by ANOVA/Tukey tests. […]

[8] = target: T4, pre-activated FXa either free or in a NAPc2-stabilized complex with TF-iFVIIa (Homo sapiens, UniProt P00742); test: FVIII activation (FVIIIa generation, WB) by pre-activated FXa, free or in NAPc2-stabilized complex; assay type: biochemical; conditions: therapeutic concentrations, 50-450 nM
T4 construct: purchased Haematologic Technologies (FXa); Siemens Healthcare Diagnostics (rTF, Dade Innovin)
T4 sequence (P00742 41-179 limits assumed): as the sequence (P00742 41-179 limits assumed) above
T4 sequence (P00742 235-488 limits assumed): as the sequence (P00742 235-488 limits assumed) above
Experimental: (D) WB analysis (representing 2) of FVIIIa generation by pre-activated or de novo generated FXa and its inhibition by increasing concentrations of AT/penta. Reactions (37° C.) initiated by 200 pM FXa or 20 pM FVIIa with 50 nM FX into mixtures of 400 pM TF, 0.7 nM FVIII, 200 nM lepirudin without (top, incubation 60 s) or with (bottom, incubation 120 s) 3 nM FV/50 nM FIX. (E) Quantification (relative to non-inhibited control) of FVIIIa generated as in D (bottom) calibrated with known FVIIIa quantities (n=6-8 by nascent FXa, 4-6 by pre-formed FXa). […]
Coagulation reaction products were separated by reducing sodium dodecyl sulfate-polyacrylamide gel electrophoresis (SDS-PAGE), except for the analysis of FVIII activation in the presence of anti-FVIIa MoAbs that was performed under non-reducing conditions. […] Quantitative infrared detection of FVIIIa and FVa was obtained with IRDye 800CW-conjugated anti-mouse IgG or streptavidin followed by analysis with the Odyssey infrared imager (Li-COR, Lincoln, Nebr.). Concentrations were calculated by calibration with known quantities of FVIIIa and FVa. […]

[9] = Plasma concentration in treated patients; assay type: in vivo; conditions: human, oral, n=10, 2 hours after drug intake
[10] = target: T5, FXa V17M mutant (Homo sapiens, UniProt P00742, V236M); test: FVIIIa generation by FXa V17M in stable complex with TF-iFVIIa-NAPc2; assay type: biochemical; conditions: up to 5 nM rivaroxaban
T5 construct: TF-associated FVIIa has converted FX into FXa active protease
T5 sequence (P00742 41-179): as the sequence (P00742 41-179 limits assumed) above
T5 sequence (P00742 235-488 V236M): as the sequence (P00742 235-488 limits assumed) above, with V2M counted along it

Compound: O=C(NC[C@H]1CN(c2ccc(N3CCOCC3=O)cc2)C(=O)O1)c1ccc(Cl)s1 [Rivaroxaban]
- peak plasma concentration [1]: 500 nM
- fibrin deposition ([2]; blood of treated patients, high density TF surface): as low as in warfarin treated patients
- volume of deposited fibrin ([2]; blood of treated patients, higher rTF coating concentration, 300 s^-1, 5 min): significantly greater; also recorded: fibrin formation in the normal range
- volume of deposited fibrin vs untreated controls ([2]; blood of treated patients, lower rTF coating concentration, 300 s^-1, 5 min): markedly smaller
- volume of platelet aggregates vs controls ([2]; blood of treated patients, rTF coating 20 and 40 pM): non significantly different from controls
- fibrin volume ([2]; rivaroxaban added to normal blood in vitro at the concentration measured in treated patients): reduced fibrin volume partially
- FVIIIa generation ([3]; 500 nM rivaroxaban): sustained
- FVIIIa generation, coagulation initiated by FVIIa ([3]; TFPI and rivaroxaban combined, rivaroxaban as high as 450 nM, lepirudin present): substantial FVIIIa generation
- effect on FVIII activation by nascent FXa generated by TF-FVIIa [3]: only marginally affected
- effect on FVIII activation by nascent FXa generated by TF-FVIIa ([3]; listed as rivaroxaban): minimally affected; also recorded: only marginally reduced
- effect on FVIII activation by FXa WT [4]: almost completely inhibited
- FVIIIa generation, initiator RVV-X ([5]; TFPI and rivaroxaban combined, rivaroxaban as high as 450 nM): substantial inhibition
- effect on FVIII activation by RVV-generated FXa ([5]; equivalent FXa levels as with TF-FVIIa): inhibited
- effect on TG initiated by TF alone in reactions containing FIXa without FVIII [6]: inhibited
- effect on FVa generation by the ternary TF-FVIIa-FXa complex [7]: blocked
- inhibition of FVIII activation by pre-activated FXa [8]: ~90%
- concentration at 2 h [9]: 312 nM
- effect on FVIIIa generation by FXa V17M [10]: insensitive
